From ChEMBL document CHEMBL1201862, “PubChem BioAssay data set” (2004)
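Test compounds were applied to cells in 96-well plates for 48 hours at 5 doses. At the GI50, growth is halved.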 Activity calls are given as the source filed them. Cut-off read from the data, not from the text of the source: active = GI50 up to about 1.1 µM and inactive = higher.

Assays:
Experiment in all cases: NCI-60 cell line screen, 48 h
TK-10 = tested on: TK-10
NCI-H522 = tested on: NCI-H522
SF-268 = tested on: SF-268
DMS-114 = tested on: DMS-114
OVCAR-5 = tested on: OVCAR-5
HCT-116 = tested on: HCT-116
CCRF-CEM = tested on: CCRF-CEM
SK-OV-3 = tested on: SK-OV-3
HCC 2998 = tested on: HCC 2998
DLD-1 = tested on: DLD-1
A549 = tested on: A549
SNB-78 = tested on: SNB-78
KM-20L2 = tested on: KM-20L2
SNB-19 = tested on: SNB-19
MOLT-4 = tested on: MOLT-4
HOP-62 = tested on: HOP-62
SF-295 = tested on: SF-295
NCI-H23 = tested on: NCI-H23
OVCAR-4 = tested on: OVCAR-4
UACC-62 = tested on: UACC-62
SN12C = tested on: SN12C
M14 = tested on: M14
K562 = tested on: K562
OVCAR-3 = tested on: OVCAR-3
ACHN = tested on: ACHN
EKVX = tested on: EKVX
A498 = tested on: A498
SNB-75 = tested on: SNB-75
CAKI-1 = tested on: CAKI-1
SK-MEL-5 = tested on: SK-MEL-5
OVCAR-8 = tested on: OVCAR-8
HCT-15 = tested on: HCT-15
RPMI-8226 = tested on: RPMI-8226
LOX IMVI = tested on: LOX IMVI
SW-620 = tested on: SW-620
HL-60 = tested on: HL-60
UACC-257 = tested on: UACC-257
NCI-H460 = tested on: NCI-H460
NCI-H226 = tested on: NCI-H226
786-0 = tested on: 786-0
LXFL 529 = tested on: LXFL 529
UO-31 = tested on: UO-31
HT-29 = tested on: HT-29
COLO 205 = tested on: COLO 205
M19-MEL = tested on: M19-MEL
IGROV-1 = tested on: IGROV-1
SK-MEL-2 = tested on: SK-MEL-2
SK-MEL-28 = tested on: SK-MEL-28
KM12 = tested on: KM12
U-251 = tested on: U-251
Malme-3M = tested on: Malme-3M
DMS-273 = tested on: DMS-273
HOP-92 = tested on: HOP-92

CNc1nc(N)cc(O)n1
GI50 (TK-10): > 100 µM (inactive)
GI50 (NCI-H522): > 100 µM (inactive)
GI50 (SF-268): > 100 µM (inactive)
GI50 (DMS-114): > 100 µM (inactive)
GI50 (OVCAR-5): > 100 µM (inactive)
GI50 (HCT-116): > 100 µM (inactive)
GI50 (CCRF-CEM): > 100 µM (inactive)
GI50 (SK-OV-3): > 100 µM (inactive)
GI50 (HCC 2998): > 100 µM (inactive)
GI50 (DLD-1): > 100 µM (inactive)
GI50 (A549): > 100 µM (inactive)
GI50 (SNB-78): > 100 µM (inactive)
GI50 (KM-20L2): > 100 µM (inactive)
GI50 (SNB-19): > 100 µM (inactive)
GI50 (MOLT-4): > 100 µM (inactive)
GI50 (HOP-62): > 100 µM (inactive)
GI50 (SF-295): > 100 µM (inactive)
GI50 (NCI-H23): > 100 µM (inactive)
GI50 (OVCAR-4): > 100 µM (inactive)
GI50 (UACC-62): > 100 µM (inactive)
GI50 (SN12C): > 100 µM (inactive)
GI50 (M14): > 100 µM (inactive)
GI50 (K562): > 100 µM (inactive)
GI50 (OVCAR-3): > 100 µM (inactive)
GI50 (ACHN): > 100 µM (inactive)
GI50 (EKVX): > 100 µM (inactive)
GI50 (A498): > 100 µM (inactive)
GI50 (SNB-75): > 100 µM (inactive)
GI50 (CAKI-1): > 100 µM (inactive)
GI50 (SK-MEL-5): > 100 µM (inactive)
GI50 (OVCAR-8): > 100 µM (inactive)
GI50 (HCT-15): > 100000 nM
GI50 (RPMI-8226): > 100 µM (inactive)
GI50 (LOX IMVI): > 100 µM (inactive)
GI50 (SW-620): > 100 µM (inactive)
GI50 (HL-60): > 100 µM (inactive)
GI50 (UACC-257): > 100 µM (inactive)
GI50 (NCI-H460): > 100 µM (inactive)
GI50 (NCI-H226): > 100 µM (inactive)
GI50 (786-0): > 100 µM (inactive)
GI50 (LXFL 529): > 100 µM (inactive)
GI50 (UO-31): > 100 µM (inactive)
GI50 (HT-29): > 100 µM (inactive)
GI50 (COLO 205): > 100 µM (inactive)
GI50 (M19-MEL): > 100 µM (inactive)
GI50 (IGROV-1): > 100 µM (inactive)
GI50 (SK-MEL-2): > 100 µM (inactive)
GI50 (SK-MEL-28): > 100 µM (inactive)
GI50 (KM12): > 100 µM (inactive)
GI50 (U-251): > 100 µM (inactive)
GI50 (Malme-3M): > 100 µM (inactive)
GI50 (DMS-273): > 100 µM (inactive)

CCOC(=O)N1CCC(N[C@@H]2c3cc4c(cc3[C@@H](c3cc(OC)c(O)c(OC)c3)[C@H]3C(=O)OC[C@@H]32)OCO4)CC1
GI50 (SF-268): 2.73 µM (inactive)
GI50 (HCT-116): 2.7 µM (inactive)
GI50 (CCRF-CEM): 0.465 µM (active)
GI50 (SK-OV-3): 0.966 µM (active)
GI50 (DLD-1): 6.68 µM (inactive)
GI50 (SNB-78): 16 µM (inactive)
GI50 (SNB-19): 1.05 µM (active)
GI50 (HOP-62): 0.853 µM (active)
GI50 (SF-295): 0.597 µM (active)
GI50 (NCI-H23): 0.501 µM (active)
GI50 (UACC-62): 0.771 µM (active)
GI50 (M14): 1.5 µM (inactive)
GI50 (K562): 2 µM (inactive)
GI50 (OVCAR-3): 6.12 µM (inactive)
GI50 (ACHN): 0.289 µM (active)
GI50 (EKVX): 1.97 µM (inactive)
GI50 (A498): 0.262 µM (active)
GI50 (SNB-75): 2.18 µM (inactive)
GI50 (CAKI-1): 0.647 µM (active)
GI50 (SK-MEL-5): 1.12 µM (active)
GI50 (OVCAR-8): 2.18 µM (inactive)
GI50 (HCT-15): 771 nM
GI50 (LOX IMVI): 1.01 µM (active)
GI50 (SW-620): 2.19 µM (inactive)
GI50 (UACC-257): 6.55 µM (inactive)
GI50 (NCI-H460): 0.0352 µM (active)
GI50 (HOP-92): 895 nM (active)
GI50 (786-0): 0.764 µM (active)
GI50 (LXFL 529): 6.78 µM (inactive)
GI50 (UO-31): 1.08 µM (active)
GI50 (HT-29): 2.63 µM (inactive)
GI50 (COLO 205): 6 µM (inactive)
GI50 (M19-MEL): 2.07 µM (inactive)
GI50 (IGROV-1): 2.95 µM (inactive)
GI50 (SK-MEL-2): 6.03 µM (inactive)
GI50 (SK-MEL-28): 9.29 µM (inactive)
GI50 (KM12): 2.07 µM (inactive)
GI50 (U-251): 1 µM (active)
GI50 (Malme-3M): 1.79 µM (inactive)
